Tests used:
[1] = electrostatic character of the crystals; format: physicochemical; conditions: contrary to the known crystalline Form II
[2] = hygroscopicity of the isolated solid; format: physicochemical; conditions: amorphous solid
[3] = as stated in US 2006/0142283 / WO 2005/035530; cited from earlier work

With `CC(=O)NC[C@H]1CN(c2ccc(N3CCOCC3)c(F)c2)C(=O)O1` [linezolid hemihydrate, Linezolid Hemihydrate] the “electrostatic character (in words)” value [1] was “not electrostatic”.

In the case of Linezolid Sulfate, the “hygroscopicity (in words)” value [2] is reported as “hygroscopic”.

In the case of `CC(=O)NC[C@H]1CN(c2ccc(N3CCOCC3)c(F)c2)C(=O)O1` [Form III, Linezolid Form III], the “electrostatic character and compactness compared with Form II (in words)” value [3] is given as “more compact and less electrostatic than the Form II”.
